This is an account of results in patent publication US20060003942A1, “Combinations for HCV treatment” (priority 2003, published 2006).

Each structure is given as a SMILES string. Read-outs that look alike come from different tables or passages of the source.

Data set [1] relates to VX-950 metabolism in human hepatic microsomes. Type of data set: in vitro ADME. The conditions noted are these: 0.25 μM VX-950, 0.25 mg microsomal protein/mL, 2 minutes.

With `CCC[C@H](NC(=O)[C@@H]1[C@H]2CCC[C@H]2CN1C(=O)[C@@H](NC(=O)[C@@H](NC(=O)c1cnccn1)C1CCCCC1)C(C)(C)C)C(=O)C(=O)NC1CC1` [VX-950], the “metabolized in human liver microsomes” value is listed as 73% (1 h, 2 μM); 7% (1 h, 20 μM); 86% (2 h, 2 μM); 21% (2 h, 20 μM).

Turning to `CC(C)c1nc(CN(C)C(=O)N[C@H](C(=O)N[C@@H](Cc2ccccc2)C[C@H](O)[C@H](Cc2ccccc2)NC(=O)OCc2cncs2)C(C)C)cs1` [ritonavir], the “effect of ritonavir on VX-950 metabolism” value is “increase in VX-950 metabolism” in data set [1] (ritonavir 10 to 100 μM) and “inhibition of VX-950 metabolism” in data set [1] (ritonavir up to 3 μM).
